Test results: patent US11964973B2 (priority 2019, dated 2024)
Like-named read-outs stand apart in the source and are kept apart here.

Columns and labels:
[1] = molecular target: DGKα (Homo sapiens (Human), UniProt P23743); test: biochemical; type: biochemical
[2] = test system: Human venous whole blood (IFN-γ); test: Human whole blood IFN-γ assay; type: cell-based
Description: Assay 10: Human Whole Blood IFN-γ Assay
Human venous whole blood (22.5 μL per well), obtained from healthy donors, was pre-treated with compounds for one hour at 37° C. in a humidified 95% air/5% CO2 incubator. The blood was stimulated with 2.5 μL anti-human CD3 and anti-CD28 mAb at a final concentration of 1 μg/mL each for 24 hours at 37° C. IFN-γ in the supernatants was measured using AlphLISA kit (Cat #AL217).

[3] = molecular target: human DGKζ (Homo sapiens (Human), UniProt Q13574); test: biochemical; type: biochemical
[4] = liposome (LIPGLO) assay, read-out: DGKα LIPGLO IC50
[5] = Homo sapiens, 24 h, human whole blood, anti-CD3 plus anti-CD28, 24 hours, read-out: INFg Whole Blood Normalized Agonist EC50
[6] = liposome (LIPGLO) assay, read-out: DGKζ LIPGLO IC50
[7] = human whole blood, anti-CD3 plus anti-CD28, 24 hours, read-out: INFg Whole Blood Normalized Agonist EC50
[8] = Table A, liposome (LIPGLO) assay, read-out: DGKα
[9] = Table A, liposome (LIPGLO) assay, read-out: DGKζ

Sequence of human DGKζ (Q13574 whole entry, looked up): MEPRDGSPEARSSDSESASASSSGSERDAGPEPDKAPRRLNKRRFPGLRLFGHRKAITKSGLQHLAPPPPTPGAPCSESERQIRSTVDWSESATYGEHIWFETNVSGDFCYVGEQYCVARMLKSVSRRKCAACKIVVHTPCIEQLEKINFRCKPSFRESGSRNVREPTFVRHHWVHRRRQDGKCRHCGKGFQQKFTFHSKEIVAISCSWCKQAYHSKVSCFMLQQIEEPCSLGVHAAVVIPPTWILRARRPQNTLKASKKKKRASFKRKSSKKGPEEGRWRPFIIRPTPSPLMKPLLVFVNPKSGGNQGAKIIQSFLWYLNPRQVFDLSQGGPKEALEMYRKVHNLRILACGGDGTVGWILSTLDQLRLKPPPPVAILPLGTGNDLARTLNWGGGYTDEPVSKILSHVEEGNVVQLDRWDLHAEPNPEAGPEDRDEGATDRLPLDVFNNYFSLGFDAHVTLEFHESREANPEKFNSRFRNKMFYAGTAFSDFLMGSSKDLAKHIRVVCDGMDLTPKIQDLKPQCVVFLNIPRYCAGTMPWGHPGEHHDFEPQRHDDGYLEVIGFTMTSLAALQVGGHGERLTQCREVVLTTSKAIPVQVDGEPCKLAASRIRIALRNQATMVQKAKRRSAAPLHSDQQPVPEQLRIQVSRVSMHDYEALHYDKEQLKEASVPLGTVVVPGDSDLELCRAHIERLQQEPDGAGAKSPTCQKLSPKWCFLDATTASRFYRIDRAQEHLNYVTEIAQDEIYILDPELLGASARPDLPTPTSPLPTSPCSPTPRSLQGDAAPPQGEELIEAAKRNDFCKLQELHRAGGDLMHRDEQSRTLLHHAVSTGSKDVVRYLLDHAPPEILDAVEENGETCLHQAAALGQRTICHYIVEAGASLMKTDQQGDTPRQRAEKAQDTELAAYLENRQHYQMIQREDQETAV
Sequence of DGKα (P23743 whole entry, looked up): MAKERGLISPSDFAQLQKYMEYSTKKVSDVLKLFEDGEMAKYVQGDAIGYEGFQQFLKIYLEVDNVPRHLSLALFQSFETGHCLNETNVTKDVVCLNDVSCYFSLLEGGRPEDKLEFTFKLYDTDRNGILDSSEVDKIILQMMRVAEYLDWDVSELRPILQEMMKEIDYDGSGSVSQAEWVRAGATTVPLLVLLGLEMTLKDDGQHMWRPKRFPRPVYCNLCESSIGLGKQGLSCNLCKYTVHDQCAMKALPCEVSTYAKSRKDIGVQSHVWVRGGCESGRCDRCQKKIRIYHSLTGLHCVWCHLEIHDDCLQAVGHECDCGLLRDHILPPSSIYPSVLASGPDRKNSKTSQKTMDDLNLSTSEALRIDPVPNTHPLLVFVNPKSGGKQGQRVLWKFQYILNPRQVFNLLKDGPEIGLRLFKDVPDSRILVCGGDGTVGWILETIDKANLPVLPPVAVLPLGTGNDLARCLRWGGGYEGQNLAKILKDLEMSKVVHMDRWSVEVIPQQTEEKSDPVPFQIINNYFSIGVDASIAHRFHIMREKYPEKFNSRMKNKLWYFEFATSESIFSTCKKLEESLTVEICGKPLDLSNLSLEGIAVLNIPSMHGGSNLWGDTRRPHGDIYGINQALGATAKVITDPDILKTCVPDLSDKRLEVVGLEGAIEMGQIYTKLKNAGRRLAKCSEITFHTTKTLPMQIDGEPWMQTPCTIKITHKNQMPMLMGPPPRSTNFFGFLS

Structure (SMILES)	IC50 [1, 4]	EC50 [2, 5]	IC50 [3, 6]	EC50 [2, 7]	also measured
Cn1c(=O)cc(N2CCC(Oc3cnc4ccccc4n3)CC2)c2nc(C#N)ccc21 [Example 69, 5-methyl-6-oxo-8-(4-(quinoxalin-2-yloxy)piperidin-1-yl)-5,6-dihydro-1,5-naphthyridine-2-carbonitrile]	5700 nM	17 µM	1.4 µM		
C[C@@H]1CN(c2cc(=O)n(C)c3ccc(C#N)nc23)CC[C@H]1Oc1ccc(F)cc1C(F)(F)F (single isomer, unassigned) [Example 118]	250 nM		52 µM	4.7 µM	
CC[C@@H]1CN(c2cc(=O)n(C)c3ccc(C#N)nc23)CC[C@H]1Oc1cccc(C(C)(C)C)c1 (single isomer, unassigned) [Example 198]					IC50 [1, 8]: 160 nM; EC50 ([2]; read-out: INFg Whole Blood, human whole blood IFN-γ): 3.1 µM; IC50 [3, 9]: 1.3 µM
CCC(C)(C)c1ccc(O[C@H]2CCN(c3cc(=O)n(C)c4ccc(C#N)nc34)C[C@H]2C)cc1 (single isomer, unassigned) [Example 171]				3 µM	IC50 ([1]; read-out: DGKα LIPGLO IC50): 1400 nM; IC50 ([3]; read-out: DGKζ LIPGLO IC50): 3.7 µM
CC(C)c1ccc(O[C@H]2CCN(c3cc(=O)n(C)c4ccc(C#N)nc34)C[C@H]2C)cc1 (single isomer, unassigned) [Example 177]	140 nM	3.5 µM	1.1 µM		
C[C@@H]1CN(c2cc(=O)n(C)c3ccc(C#N)nc23)CC[C@@H]1Oc1cccc(C2CC2)c1 [Example 179, 8-((3R,4S)-4-(3-cyclopropylphenoxy)-3-methylpiperidin-1-yl)-5-methyl-6-oxo-5,6-dihydro-1,5-naphthyridine-2-carbonitrile]	69 nM	2.4 µM	1.2 µM		
Cn1c(=O)cc(N2CCC(Oc3ccc(Cc4ccccc4)cc3)CC2)c2nc(C#N)ccc21 [Example 55, 8-(4-(4-benzylphenoxy)piperidin-1-yl)-5-methyl-6-oxo-5,6-dihydro-1,5-naphthyridine-2-carbonitrile]	950 nM	3.7 µM	3.8 µM		
CC(C)c1ccc(O[C@@H]2CCN(c3cc(=O)n(C)c4ccc(C#N)nc34)C[C@H]2C)cc1 (single isomer, unassigned) [Example 95]	400 nM		5 µM	1 µM	
C[C@@H]1CN(c2cc(=O)n(C)c3ccc(C#N)nc23)CC[C@H]1Oc1ccc(C(F)(F)F)cc1F [Example 112, 8-((3R,4R)-4-(2-fluoro-4-(trifluoromethyl)phenoxy)-3-methylpiperidin-1-yl)-5-methyl-6-oxo-5,6-dihydro-1,5-naphthyridine-2-carbonitrile]	340 nM	4.1 µM	7.5 µM		
CC[C@@H]1CN(c2cc(=O)n(C)c3ccc(C#N)nc23)CC[C@H]1Oc1cccc(C(F)(F)F)c1 (single isomer, unassigned) [Example 141]	68 nM		0.26 µM	0.5 µM	
CCC(C)(C)c1ccc(O[C@@H]2CCN(c3cc(=O)n(C)c4ccc(C#N)nc34)C[C@H]2C)cc1 [Example 82, 5-methyl-8-((3R,4R)-3-methyl-4-(4-(tert-pentyl)phenoxy)piperidin-1-yl)-6-oxo-5,6-dihydro-1,5-naphthyridine-2-carbonitrile]		0.65 µM			IC50 ([1]; read-out: DGKα LIPGLO IC50): 30 nM; IC50 ([3]; read-out: DGKζ LIPGLO IC50): 3.9 µM
Cn1c(=O)cc(N2CCC(Oc3nccc4cccnc34)CC2)c2nc(C#N)ccc21 [Example 74, 8-(4-((1,7-naphthyridin-8-yl)oxy)piperidin-1-yl)-5-methyl-6-oxo-5,6-dihydro-1,5-naphthyridine-2-carbonitrile]	2800 nM	20 µM	3.3 µM		
Cn1c(=O)cc(N2CCC(Oc3ncnc4ccccc34)CC2)c2nc(C#N)ccc21 [Example 71, 5-methyl-6-oxo-8-(4-(quinazolin-4-yloxy)piperidin-1-yl)-5,6-dihydro-1,5-naphthyridine-2-carbonitrile]	2300 nM	20 µM	3 µM		
CC(C)c1ccc(O[C@H]2CCN(c3cc(=O)n(C)c4ccc(C#N)nc34)C[C@H]2C)cc1 [Example 176, 8-((3R,4S)-4-(4-isopropylphenoxy)-3-methylpiperidin-1-yl)-5-methyl-6-oxo-5,6-dihydro-1,5-naphthyridine-2-carbonitrile]	41 nM	2.3 µM	1.3 µM		
CC[C@@H]1CN(c2cc(=O)n(C)c3ccc(C#N)nc23)CC[C@@H]1Oc1cccc(C(C)(C)C)c1 [Example 166, 8-((3R,4S)-4-(3-(tert-butyl)phenoxy)-3-ethylpiperidin-1-yl)-5-methyl-6-oxo-5,6-dihydro-1,5-naphthyridine-2-carbonitrile]	46 nM		1.6 µM		EC50 ([2]; read-out: INFg Whole Blood Normalized Agonist EC50, human whole blood, anti-CD3 plus anti-CD28, 24 hours): 0.79 µM
C[C@@H]1CN(c2cc(=O)n(C)c3ccc(C#N)nc23)CC[C@H]1Oc1ccc(C2CCCC2)cc1 (single isomer, unassigned) [Example 101]	430 nM		6.8 µM	1.4 µM	
Cc1ccc(O[C@@H]2CCN(c3cc(=O)n(C)c4ccc(C#N)nc34)C[C@H]2C)cc1 (single isomer, unassigned) [Example 121]	1800 nM		9.9 µM	6.7 µM	
Cn1c(=O)cc(N2CCC(Oc3ccc(OC(C)(C)C)cc3)CC2)c2nc(C#N)ccc21 [Example 65, 8-(4-(4-(tert-butoxy)phenoxy)piperidin-1-yl)-5-methyl-6-oxo-5,6-dihydro-1,5-naphthyridine-2-carbonitrile]	560 nM	6.8 µM	3.3 µM		
C[C@@H]1CN(c2cc(=O)n(C)c3ccc(C#N)nc23)CC[C@H]1Oc1ccc(C2CCCC2)cc1 [Example 100, 8-((3R,4R)-4-(4-cyclopentylphenoxy)-3-methylpiperidin-1-yl)-5-methyl-6-oxo-5,6-dihydro-1,5-naphthyridine-2-carbonitrile]	110 nM	2.7 µM	28 µM		
Cn1c(=O)cc(N2CCC(Oc3ccc(C(C)(C)C)nn3)CC2)c2nc(C#N)ccc21 [Example 68, 8-(4-((6-(tert-butyl)pyridazin-3-yl)oxy)piperidin-1-yl)-5-methyl-6-oxo-5,6-dihydro-1,5-naphthyridine-2-carbonitrile]	1700 nM	9.6 µM	1.7 µM		
CC(C)c1ccc(O[C@H]2CCN(c3cc(=O)n(C)c4ccc(C#N)nc34)C[C@H]2C)cc1 (single isomer, unassigned) [Example 183]					IC50 [1, 8]: 710 nM; EC50 ([2]; Homo sapiens, human whole blood IFN-γ, read-out: INFg Whole Blood): 2.6 µM; IC50 [3, 9]: 0.94 µM
Cc1ccc(O[C@@H]2CCN(c3cc(=O)n(C)c4ccc(C#N)nc34)C[C@H]2C)cc1 [Example 119, 5-methyl-8-((3R,4R)-3-methyl-4-(p-tolyloxy)piperidin-1-yl)-6-oxo-5,6-dihydro-1,5-naphthyridine-2-carbonitrile]	240 nM	6.6 µM	20 µM		
Cn1c(=O)cc(N2CCC(Oc3ccc4c(c3)CCCC4)CC2)c2nc(C#N)ccc21 [Example 61, 5-methyl-6-oxo-8-(4-((5,6,7,8-tetrahydronaphthalen-2-yl)oxy)piperidin-1-yl)-5,6-dihydro-1,5-naphthyridine-2-carbonitrile]	730 nM	8.5 µM	4.7 µM		
Cc1cccc(O[C@@H]2CCN(c3cc(=O)n(C)c4ccc(C#N)nc34)C[C@H]2C)c1 (single isomer, unassigned) [Example 109]	120 nM		29 µM	4.2 µM	
Cc1cccc(O[C@@H]2CCN(c3c(C#N)c(=O)n(C)c4ccc(C#N)nc34)C[C@H]2C)c1 [Example 136, 5-methyl-8-((3R,4R)-3-methyl-4-(m-tolyloxy)piperidin-1-yl)-6-oxo-5,6-dihydro-1,5-naphthyridine-2,7-dicarbonitrile]		20 µM	≥ 250 µM		IC50 ([1]; DGKα LIPGLO IC50): 810 nM
CC[C@@H]1CN(c2cc(=O)n(C)c3ccc(C#N)nc23)CC[C@H]1Oc1ccc(OC(C)(C)C)cc1 (single isomer, unassigned) [Example 160]	1700 nM		3.3 µM	4.5 µM	
Cc1cc(OC2CCN(c3cc(=O)n(C)c4ccc(C#N)nc34)CC2)nc(C)n1 [Example 70, 8-(4-((2,6-dimethylpyrimidin-4-yl)oxy)piperidin-1-yl)-5-methyl-6-oxo-5,6-dihydro-1,5-naphthyridine-2-carbonitrile]	12000 nM	20 µM	11 µM		
CCC(C)(C)c1ccc(O[C@@H]2CCN(c3cc(=O)n(C)c4ccc(C#N)nc34)C[C@H]2C)cc1 (single isomer, unassigned) [Example 84]	48 nM		23 µM	1.2 µM	
Cc1cccc(O[C@@H]2CCN(c3cc(=O)n(C)c4ccc(C#N)nc34)C[C@H]2C)c1 (single isomer, unassigned) [Example 108]	910 nM	3 µM	11 µM		
C[C@@H]1CN(c2c(C#N)c(=O)n(C)c3ccc(C#N)nc23)CC[C@@H]1Oc1ccc(C(F)(F)F)cc1 [Example 191, 5-methyl-8-((3R,4S)-3-methyl-4-(4-(trifluoromethyl)phenoxy)piperidin-1-yl)-6-oxo-5,6-dihydro-1,5-naphthyridine-2,7-dicarbonitrile]					IC50 [1, 8]: 1800 nM; EC50 ([2]; human whole blood IFN-γ, read-out: INFg Whole Blood): 20 µM; IC50 [3, 9]: 8.6 µM
